Source: patent publication US9028845B2, “Chimeric immunomodulatory compounds and methods of using the same-IV” (Dynavax Technologies Corporation, priority 2001, dated 2015)

Key:
[1] = tested on: human PBMCs; assay: Human PBMC cytokine response assay (IFN-γ and IFN-α in cell-free medium by ELISA), with or without cPLGA; assay type: cell-based; settings: for IFN-γ (pg/ml) 28065: donor 28065 (high background), 1000 = outside assay limits; for IFN-γ (pg/ml) 28065 / IFN-α (pg/ml) 28065 / IFN-α (pg/ml) 28066 / IFN-γ (pg/ml) 28066 / IFN-α (pg/ml) 28067 / IFN-γ (pg/ml) 28067 / IFN-α (pg/ml) 28068 / IFN-γ (pg/ml) 28068 / IFN-α (pg/ml) mean / IFN-γ (pg/ml) mean: 20 ug/ml, + PLGA = premixed with 100 μg/ml cPLGA; for IFN-α (pg/ml) 28065: donor 28065; for IFN-α (pg/ml) 28066 / IFN-γ (pg/ml) 28066: donor 28066; for IFN-α (pg/ml) 28067 / IFN-γ (pg/ml) 28067: donor 28067; for IFN-α (pg/ml) 28068 / IFN-γ (pg/ml) 28068: donor 28068; for IFN-α (pg/ml) mean / IFN-γ (pg/ml) mean: mean of donors 28065-28068; for IFN-α mean / IFN-γ mean: mean of donors;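 for IFN-α (pg/ml) mean: 20 µg/mL compound for 24 hours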;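 for IFN-γ (pg/ml) mean: 20 µg/mL compound for 24 hours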
[2] = tested on: CD19+ B cells; assay: Human B cell proliferation assay (3H-thymidine incorporation); settings: for cpm1 / cpm2 / cpm3 / mean cpm / mean of both: B cells, Experiment B; for mean of both: mean of donors 121 and 194

5′-TCGTCG-3′-C12-5′-ACGTTCG-3′-C12-5′-AGATGAT-3′ [Compound C-19]
IFN-γ (pg/ml) 28065 ([1]; 24 h): 84 pg/mL | IFN-α (pg/ml) 28065 ([1]; 24 h): 0 pg/mL | IFN-α (pg/ml) 28066 ([1]; 24 h): 1 pg/mL | IFN-γ (pg/ml) 28066 ([1]; 24 h): 8 pg/mL | IFN-α (pg/ml) 28067 ([1]; 24 h): 0 pg/mL | IFN-γ (pg/ml) 28067 ([1]; 24 h): 1 pg/mL | IFN-α (pg/ml) 28068 ([1]; 24 h): 13 pg/mL | IFN-γ (pg/ml) 28068 ([1]; 24 h): 2 pg/mL | IFN-α (pg/ml) mean ([1]; 24 h): 4 pg/mL | IFN-γ (pg/ml) mean ([1]; 24 h): 24 pg/mL | immunomodulatory activity (IFN-γ / IFN-α secretion), in words ([1]; used alone (no cPLGA)): did not show activity | B cell proliferation, in words ([2]; 2 μg/ml, 48 h plus 8 h 3H-thymidine pulse): inactive | cpm1 ([2]; donor 121, 2 μg/ml): 858 cpm | cpm2 ([2]; donor 121, 2 μg/ml): 1099 cpm | cpm3 ([2]; donor 121, 2 μg/ml): 926 cpm | mean cpm ([2]; donor 121 mean, 2 μg/ml): 961 cpm | cpm1 ([2]; donor 194, 2 μg/ml): 371 cpm | cpm2 ([2]; donor 194, 2 μg/ml): 403 cpm | cpm3 ([2]; donor 194, 2 μg/ml): 312 cpm | mean cpm ([2]; donor 194 mean, 2 μg/ml): 362 cpm | mean of both ([2]; 2 μg/ml): 662 cpm

5′-TCGTCG-3′-abasic-5′-ACGTTCG-3′-abasic-5′-AGATGAT-3′ [Compound C-20]
IFN-γ (pg/ml) 28065 ([1]; 24 h): 354 pg/mL | IFN-α (pg/ml) 28065 ([1]; 24 h): 21 pg/mL | IFN-α (pg/ml) 28066 ([1]; 24 h): 5 pg/mL | IFN-γ (pg/ml) 28066 ([1]; 24 h): 13 pg/mL | IFN-α (pg/ml) 28067 ([1]; 24 h): 13 pg/mL | IFN-γ (pg/ml) 28067 ([1]; 24 h): 16 pg/mL | IFN-α (pg/ml) 28068 ([1]; 24 h): 64 pg/mL | IFN-γ (pg/ml) 28068 ([1]; 24 h): 505 pg/mL | IFN-α (pg/ml) mean ([1]; 24 h): 26 pg/mL | IFN-γ (pg/ml) mean ([1]; 24 h): 222 pg/mL | cpm1 ([2]; donor 121, 2 μg/ml): 31276 cpm | cpm2 ([2]; donor 121, 2 μg/ml): 30851 cpm | cpm3 ([2]; donor 121, 2 μg/ml): 28532 cpm | mean cpm ([2]; donor 121 mean, 2 μg/ml): 30220 cpm | cpm1 ([2]; donor 194, 2 μg/ml): 18082 cpm | cpm2 ([2]; donor 194, 2 μg/ml): 18705 cpm | cpm3 ([2]; donor 194, 2 μg/ml): 17481 cpm | mean cpm ([2]; donor 194 mean, 2 μg/ml): 18089 cpm | mean of both ([2]; 2 μg/ml): 24155 cpm

5′-TCGTCG-3′-HEG-5′-TCGTCG-3′-HEG-5′-TCGTCG-3′ [Compound C-22]
IFN-α ([1]; Table 9, donor 28089): 0 pg/mL | IFN-γ ([1]; Table 9, donor 28089): 31 pg/mL | IFN-α ([1]; Table 9, donor 28090): 46 pg/mL | IFN-γ ([1]; Table 9, donor 28090): 15 pg/mL | IFN-α ([1]; Table 9, donor 28098): 97 pg/mL | IFN-γ ([1]; Table 9, donor 28098): 110 pg/mL | IFN-α ([1]; Table 9, donor 28099): 247 pg/mL | IFN-γ ([1]; Table 9, donor 28099): 91 pg/mL | IFN-α mean ([1]; Table 9): 97 pg/mL | IFN-γ mean ([1]; Table 9): 62 pg/mL | IFN-α ([1]; Table 10, donor 28042): 12 pg/mL | IFN-γ ([1]; Table 10, donor 28042): 206 pg/mL | IFN-α ([1]; Table 10, donor 28043): 18 pg/mL | IFN-γ ([1]; Table 10, donor 28043): 343 pg/mL | IFN-α ([1]; Table 10, donor 28044): 67 pg/mL | IFN-γ ([1]; Table 10, donor 28044): 736 pg/mL | IFN-α ([1]; Table 10, donor 28045): 30 pg/mL | IFN-γ ([1]; Table 10, donor 28045): 40 pg/mL | IFN-α mean ([1]; Table 10): 32 pg/mL | IFN-γ mean ([1]; Table 10): 331 pg/mL | activity when formulated with cPLGA, in words ([1]; formulated with cPLGA): induced considerable IFN-γ and IFN-α when formulated with cPLGA | IFN-γ induction, in words ([1]; used alone): induce IFN-γ when used alone | cpm1 ([2]; donor 121, 2 μg/ml): 17147 cpm | cpm2 ([2]; donor 121, 2 μg/ml): 14014 cpm | cpm3 ([2]; donor 121, 2 μg/ml): 6844 cpm | mean cpm ([2]; donor 121 mean, 2 μg/ml): 12668 cpm | cpm1 ([2]; donor 194, 2 μg/ml): 6472 cpm | cpm2 ([2]; donor 194, 2 μg/ml): 5540 cpm | cpm3 ([2]; donor 194, 2 μg/ml): 3894 cpm | mean cpm ([2]; donor 194 mean, 2 μg/ml): 5302 cpm | mean of both ([2]; 2 μg/ml): 8985 cpm

(5′-TCGTCGT-3′-HEG)2-glycerol-HEG-5′-TCGTCGT-3′ [Compound C-142]
IFN-α induction (FIG. 10), in words ([1]; PBMCs from 8 donors, 20 μg/ml, 24 h): induce high levels of IFN-α | B cell proliferation (FIG. 11), in words ([2]; purified human B cells, 5 μg/ml, 96 h): induce B cells to proliferate

5′-TCGTCG-3′-TEG-5′-ACGTTCG-3′-TEG-5′-AGATGAT-3′ [Compound C-18]
IFN-γ (pg/ml) 28065 ([1]; 24 h): 1000 pg/mL | IFN-α (pg/ml) 28065 ([1]; 24 h): 51 pg/mL | IFN-α (pg/ml) 28066 ([1]; 24 h): 9 pg/mL | IFN-γ (pg/ml) 28066 ([1]; 24 h): 102 pg/mL | IFN-α (pg/ml) 28067 ([1]; 24 h): 16 pg/mL | IFN-γ (pg/ml) 28067 ([1]; 24 h): 27 pg/mL | IFN-α (pg/ml) 28068 ([1]; 24 h): 162 pg/mL | IFN-γ (pg/ml) 28068 ([1]; 24 h): 695 pg/mL | IFN-α (pg/ml) mean ([1]; 24 h): 59 pg/mL | IFN-γ (pg/ml) mean ([1]; 24 h): 456 pg/mL | cpm2 ([2]; donor 121, 2 μg/ml): 17085 cpm | cpm3 ([2]; donor 121, 2 μg/ml): 14653 cpm | mean cpm ([2]; donor 121 mean, 2 μg/ml): 15869 cpm | cpm1 ([2]; donor 194, 2 μg/ml): 10028 cpm | cpm2 ([2]; donor 194, 2 μg/ml): 12217 cpm | cpm3 ([2]; donor 194, 2 μg/ml): 10538 cpm | mean cpm ([2]; donor 194 mean, 2 μg/ml): 10928 cpm | mean of both ([2]; 2 μg/ml): 13398 cpm
